Reference: patent publication US11419335B2, “N-arylated analogues and uses thereof” (University of Florida Research Foundation, Incorporated, priority 2016, dated 2022)
Marks after values point to notes of the source that are not given here.

Assays:
MRSA BAA-1707 biofilms = assay: Calgary Biofilm Device assay (MBC/MBEC), MRSA BAA-1707; type: cell-based, Staphylococcus aureus
Protocol: (§1) The lid of the Calgary device was then removed, washed and transferred to another 96-well plate containing 2-fold serial dilutions of the test compounds (the “challenge plate”). The total volume of media with compound in each well in the challenge plate is 150 μL. […] The lid was then removed from the challenge plate and MBC/MBEC values were determined using different final assays. […] The MBC values were determined as the concentration giving a lack of visible bacterial growth (i.e., turbidity). […] In select experiments, pegs from the Calgary device were removed from lead biofilm eradicators after final incubation, sonicated for 30 minutes in PBS and plated out to determine biofilm cell killing of lead biofilm-eradicating agents (i.e., colony forming unit per milliliter, CFU/mL).
(§2) Using a Calgary Biofilm Device, bacterial biofilms are established on pegs suspended to the bottom of a 96-well plate lid. Following biofilm establishment on lid pegs, lids are then transferred to new 96-well plates containing serial dilutions of test compound and allowed to incubate. After compound treatment, 96-well plate lids with pegs are once again transferred to 96-well plates containing fresh media. During this final phase of the assay, viable biofilms will grow and disperse planktonic cells into the media where they will grow and give a turbid well result. Conversely, wells that have no growth are a result of pegs that had eradicated bacterial biofilms. The lowest concentration at which no turbidity is observed is the minimum biofilm eradication concentration (MBEC). Using the Calgary Biofilm Device, both minimum biofilm eradication concentrations and minimum bactericidal concentrations (MBC) for planktonic bacterial can be determined using one assay from a single bacterial culture (FIG. 3A).

C. albicans SC5314 [1] = assay: Fungal MIC susceptibility assay, C. albicans; type: cell-based, Candida albicans; settings: for C. albicans SC5314 MIC: Table 2B
Protocol: (§3) Fungal minimum inhibition concentrations (MICs) were determined using standard microdilution methods according to the Clinical and Laboratory Standards Institute document M27-A3. The test compound concentration ranged from 0.01 to 100 μM. Amphotericin B (AmB) and itraconazole (ITC) (Fisher Scientific) were included as positive controls. DMSO, the vehicle control, was used at ≤1% v/v for these experiments. The fungal M27-A3 standard MIC assay protocol requires the following inoculum preparation protocol: The organisms were cultured onto PDA medium at 35° C. The inoculum is prepared by picking five colonies from 24-hour old culture of Candida spp. or 48-hour old culture of C. neoformans. The inoculum was suspended in 5 ml of sterile water, the resulting suspension was vortexed for 15 seconds and the cell density adjusted (by adding more sterile water) to an OD530=0.30, which yields a suspension of 1×10^6 to 5×10^6 cells per mL. The suspension was diluted 50 times and then 20 times using RPMI 1640 medium to obtain the two times test inoculum (1×10^3 to 5×10^3 cells per mL). The following steps are the same with the standard bacterial MIC protocol using 96-well plates. NOTE: RPMI 1640 medium was used in the fungal MIC assay (for both cell inoculum and compound dilution).

C. neoformans ATCC 66031 = assay: Fungal MIC susceptibility assay, C. neoformans; type: cell-based; settings: for C. neoformans 66031 MIC: Table 2B
Protocol: as §3

VRE ATCC 700221 biofilms = assay: Calgary Biofilm Device assay (MBC/MBEC), VRE 700221; type: cell-based, Enterococcus faecium; settings: for VRE 700221 MBEC: biofilm; for VRE MBC / VRE MBEC: Table 2A
Protocol: as §1, §2

MRSA-2 biofilms = assay: Calgary Biofilm Device assay (MBC/MBEC), MRSA-2; type: cell-based, Staphylococcus aureus; settings: Table 2A; CBD assay
Protocol: as §1, §2

C. albicans SC5314 [2] = assay: Minimum fungicidal concentration assay, C. albicans; type: cell-based, Candida albicans; settings: Table 2B
[3] = test system: C. albicans SC5314 biofilms; assay: MTT assay for fungal biofilm eradication (MBEC), C. albicans; type: cell-based, Candida albicans; settings: Table 2B, 90% eradicated biofilm
Protocol: One colony was picked from a 24-hour old culture of Candida spp. or 48-hour old culture of C. neoformans and added to YPD liquid medium for inoculation and cultured at 37° C. overnight. Cells were then washed with PBS (Phosphate-buffered saline (10 mM potassium phosphate, 150 mM NaCl, pH 7.0)) and standardized to OD600=1.0. Microtiter wells were then treated with 50% FCS (Fetal calf serum) in PBS for at least 30 min at room temperature (FCS pre-treatment is not absolutely required for Candida spp.). The FCS was aspirated and microtiter wells were rinsed once with 200 μL PBS before 100 μL of the cell suspension was added to each microtiter well. The plate was then incubated statically at 37° C. for 2 hours. Non-adherent cells were then removed by aspiration and microtiter wells were washed with PBS twice to remove loosely associated cells.
The resulting cell culture was aspirated and wells were rinsed once with 200 μL PBS. Controls and compounds were diluted in YNB medium (200 μL) were added to microtiter wells.
Following incubation, the culture was aspirated and wells are rinsed twice with 200 μL PBS before 100 μL of MTT (0.5 mg/mL dissolved in PBS containing 1% glucose) was added to each microtiter well. The plate was then incubated at 37° C. for 30 min, or longer, until dark blue/black crystals formation could be observed (usually 2 hours at most). The MTT reaction was terminated by aspiration of the solution. The crystals were then solubilized by adding 100 μL of 40% acetic acid to the microtiter wells. Killing efficacies were monitored by eye or quantitatively measured using a plate reader (absorbance at 550 nm). MBEC values were determined as the lowest compound concentration leading to 90% eradicated biofilm. All MBEC values using the MTT assay were recorded from at least three independent experiments.

[4] = Table 2, CBD assay, planktonic cells

| Structure (SMILES) | MRSA BAA-1707 MBC (MRSA BAA-1707 biofilms; Table 2A, CBD assay) | MRSA BAA-1707 MBEC (MRSA BAA-1707 biofilms; Table 2A, CBD assay) | MRSA-2 MBC (MRSA-2 biofilms) | MRSA-2 MBEC (MRSA-2 biofilms) | VRE MBC (VRE ATCC 700221 biofilms; CBD assay) | VRE MBEC (VRE ATCC 700221 biofilms; CBD assay) | C. albicans SC5314 MBC (C. albicans SC5314 [2]) [µM] | C. albicans SC5314 MBEC [3] | C. albicans SC5314 MIC (C. albicans SC5314 [1]) [µM] | MIC C. albicans SC5314 (C. albicans SC5314 [1]; Table 4, antifungal) [µM] | C. neoformans 66031 MIC (C. neoformans ATCC 66031) [µM] | MIC C. neof 66031 (C. neoformans ATCC 66031; Table 4, antifungal) [µM] | further results |
| --- | --- | --- | --- | --- | --- | --- | --- | --- | --- | --- | --- | --- | --- |
| CCCCCCCCCCCCCCCCn1cc[n+](Cc2ccccc2)c1C [NH125, 3-benzyl-1-hexadecyl-2-methyl-1H-imidazol-3-ium bromide, reference compound] | – | – | – | – | – | – | – | – | – | – | – | – | minimum biofilm eradication concentration (MBEC), MRSA BAA-1707 biofilms (MRSA BAA-1707 biofilms): 46.9 µM; MBC (MRSA BAA-1707 biofilms; Staphylococcus aureus, Table 2, CBD assay, planktonic cells): 23.5 µM; MRSA BAA-1707 MBEC (MRSA BAA-1707 biofilms; Table 2, CBD assay, biofilm): 46.9 µM; reduction of viable biofilm cells (MRSA BAA-1707 biofilms; at 62.5, colony counts of CBD pegs, MRSA BAA-1707): 3 to 4 log; MIC (C. albicans SC5314 [1]; Candida albicans, SC5314, Table 4, antifungal): 3.13 µM; MIC (C. neoformans ATCC 66031; Cryptococcus neoformans, ATCC66031, Table 4, antifungal, read-out: MIC C. neof 66031): 3.13 µM; MBC (VRE ATCC 700221 biofilms; Enterococcus, Table 2, CBD assay, planktonic cells): 59 µM; VRE 700221 MBEC (VRE ATCC 700221 biofilms; Table 2, CBD assay): 11.7 µM |
| CCCCCCCCCCCCCCCCn1cc(-c2ccccc2)[n+](C)n1.[I-] [Compound 30] | 11.7^a/ μM | 23.5^a μM | 31.3^b/31.3 μM | 31.3^b/31.3 μM | – | – | – | – | – | – | – | – | – |
| CCCCCCCCCCCCCCCCn1cc[n+](Cc2cccc(F)c2)c1C.[Br-] [Compound 18] | – | – | 93.8^a/93.8^a μM | 93.8^a/93.8^a μM | 5.85^a/ μM | 11.7^a μM | – | – | – | – | – | – | – |
| CCCCCCCCCCCCCCCC[N+](C)(C)Cc1ccccc1.[Cl-] [BAC-16, reference compound] | – | – | – | – | – | – | 6.25 | 15.63 | 3.13 | 3.13 | 3.12 | 6.25 | – |
| CCCCCCCCCCCCCCCCn1cc[n+](CCO)c1C.[Br-] [Compound 11] | 23.5^a/ μM | 46.9^a μM | 11.7 µM | 31.3 µM | 3.0^a/ μM | 3.9 µM | 6.25 | 7.82 | 3.13 | 3.13 | 1.56 | 6.25 | – |
| CCCCCCCCCCCC[N+](C)(C)CC[N+](C)(C)CC[N+](C)(C)CCCCCCCCCCCC [QAC-10, reference compound] | 93.8^a/ μM | 93.8^a μM | 31.3 µM | 125 µM | 3.0^a/ μM | 3.0^a μM | – | – | – | – | – | – | MRSA BAA-1707 MBEC (MRSA BAA-1707 biofilms; Table 2, CBD assay, biofilm): 93.8^a/93.8^a μM; MRSA BAA-1707 MBC (MRSA BAA-1707 biofilms; [4]): 93.8^a/93.8^a μM; MBEC, VRE biofilms (VRE ATCC 700221 biofilms): 3.0 µM; VRE 700221 MBEC (VRE ATCC 700221 biofilms; Table 2, CBD assay): 3.0^a/3.0^a μM; VRE 700221 MBC (VRE ATCC 700221 biofilms; [4]): 3.0^a/3.0^a μM |
| CCCCCCCCCCCCCCCCn1cc[n+](C)c1C.[I-] [Compound 8] | 11.7^a/ μM | 31.3 µM | 11.7 µM | 23.5 µM | 3.9/3.9 μM | 3.9/3.9 μM | 6.25 | 15.63 | 3.13 | 3.13 | 1.56 | 6.25 | – |
